The target in one assay is OGG1 (Homo sapiens (Human), UniProt O15527). The assay can be described thus: In vitro OGG1 activity assay. In kind it is biochemical. The note with it: 800 pM OGG1 enzyme, 2 nM human APEX1, 10 nM 8-oxoA:C substrate. Summed up:
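Read-out is fluorescein fluorescence, with compounds in DMSO added first, then enzyme and substrate. OGG1 excises its substrate base from a quenched fluorophore-labelled duplex, and surplus APEX1 cuts the resulting apurinic site. The duplex then melts and fluorescence rises in proportion to glycosylase activity.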

In a further assay the test system is MLE12 cells. Nature of the assay: Cell viability assay in MLE12 cells (resazurin). In kind it is cell-based, mouse. Particulars: Mus musculus, MLE12, 24 h, TNF-α 20 ng/ml, resazurin added after 24 hours culture. As to the method:
(§1) Stock solutions (10 mM in DMSO) of compounds were dispensed in V-bottom 384-well plates and the following dilutions were prepared: 10 mM and 0.05 mM. The dilutions were transferred to the source plate. Duplicate 6 points dose-response curves of compounds were nano-dispensed in cell plates (CCL2 assay) and in parallel, 11 points DR curves in duplicates were nano-dispensed for the viability assay. The plates were heat sealed and kept at RT until use.
(§2) MLE12 cells in flasks were washed once with PBS, detached with Trypsin/EDTA, resuspended in fresh medium and counted. Cells were diluted to 3×10^5 cells/ml and seeded with Multidrop Combi in cell plates pre-dispensed with compounds, 25 μl/well (7500 cells/well). The plates were placed, one by one, in a CO2-incubator at 37° C. for 1 hour after which 25 μl/well of TNF-α (final concentration 20 ng/ml) were added. The plates were transferred back to the CO2-incubator placed in a plastic box with wet tissue in the bottom, to avoid evaporation, for 30 hours.
After 24 hours culture, resazurin reagent (stock 1 mg/ml in PBS) diluted 1:17 in PBS was added with Multidrop Combi, 10 μl/well, and plates were incubated for 6 hours. Plates were read in Sense plate reader with resorufin protocol (ex544 nm/em595 nm). The results were imported to an excel template where the EC50 values were calculated using XLfit.
For orientation: Alamar Blue is a resazurin reagent that responds to reducing activity.

Another assay concerns CCL2. The assay can be described thus: Mouse CCL2 assay in MLE12 cells. Particulars: Mus musculus, MLE12, 30 h, MLE12 cells; TNF-α 20 ng/ml; supernatant after 30 hours; HTRF; read-out: CCL2 (EC50). In kind it is cell-based.
Description: Cisbio mouse CCL2 assay is intended for the quantitative measurement of CCL2 in supernatant using HTRF® technology. The assay is compatible with mouse samples, and is highly specific for CCL2. CCL2 is detected in a sandwich assay format using 2 different specific antibodies, one labeled with Cryptate (donor) and the second with d2 (acceptor). The detection principle is based on HTRF® technology. When the labelled antibodies bind to the same antigen, the excitation of the donor with a light source (laser or flash lamp) triggers a Fluorescence Resonance Energy Transfer (FRET) towards the acceptor, which in turn fluoresces at a specific wavelength (665 nm). The two antibodies bind to the CCL2 present in the sample, thereby generating FRET. Signal intensity is proportional to the number of antigen-antibody complexes formed and therefore to the CCL2 concentration. • Materials: • Cells: MLE12 (Mouse Lung Epithelial cells, SV40 transformed) • Medium: DMEM/F12 (Gibco #11330057), FBS 5% (Gibco #10500064), Pen/Strep 50 U/50 μg/ml (Gibco #15070063) • Cell plates: 384-well, black/clear, TC-treated (Corning #3764) • Source plate: Labcyte LDV 384 (Labcyte #LP-0200) • Compound dilution plate: V-bottom 384-well PP plate (Greiner #781280) • Compounds: 10 mM stocks in DMSO • HTRF plates: 384-well, white, half area, non-binding (Costar #3824) • Mouse CCL2 kit: Cisbio 62MCCL2PEH • Other reagents: Trypsin/EDTA 10× (Gibco #15400054), PBS (Gibco #14190169), Resazurin (Sigma-Aldrich #199303), 1 mg/ml in PBS, TNF-α 200 μg/ml in PBS (Peprotech #300-01A) • Instruments: • Echo liquid handler (Labcyte) • Multidrop Combi (Thermo Scientific) • Sense plate reader (Hidex) Compound Handling:
as §1, §2
After 30 hours incubation, the plates were spun down 5 minutes at 400 g, and 16 μl/well of the supernatants were transferred to the assay plate. A mCCL2 standard curve was prepared according to the kit protocol and 16 μl/well of the standards were also added to the assay plate.
The anti-CCL2 antibody mix was prepared according to the kit protocol, and 4 μl/well were added to the assay plate. The plate was sealed and incubated over night at RT. After incubation the plate was read in Sense plate reader with Time-resolved FRET protocol (Ex330 nm/Em 620 and 665 nm). After data reduction, the delta ratios were imported to an excel template where the IC50 values were calculated.
(In general: TR-FRET usually uses a lanthanide donor and a delayed reading to cut background.)

Some results are limits rather than exact numbers.

Sequence of OGG1 (O15527 whole entry): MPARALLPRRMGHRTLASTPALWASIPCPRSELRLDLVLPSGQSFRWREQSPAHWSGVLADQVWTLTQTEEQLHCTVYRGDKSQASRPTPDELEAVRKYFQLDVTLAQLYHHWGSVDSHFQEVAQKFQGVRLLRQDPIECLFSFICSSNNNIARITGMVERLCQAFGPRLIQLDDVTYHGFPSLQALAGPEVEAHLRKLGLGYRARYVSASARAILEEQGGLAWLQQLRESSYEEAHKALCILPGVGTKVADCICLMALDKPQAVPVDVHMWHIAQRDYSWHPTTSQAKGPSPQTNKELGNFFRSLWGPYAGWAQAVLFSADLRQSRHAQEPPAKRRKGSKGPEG

Consider `COc1cc(NC(=O)[C@H]2CC[C@@H](n3c(=O)[nH]c4c(NC(=O)CN5CCOCC5)cccc43)CC2)ccc1C` [Example 285, Cis-N-(3-methoxy-4-methylphenyl)-4-{4-[2-(morpholin-4-yl)acetamido]-2-oxo-2,3-dihydro-1H-1,3-benzodiazol-1-yl}cyclohexane-1-carboxamide], for which the values for the IC50 on OGG1 and with MLE12 cells were 0.0451 µM and 15.9 µM, respectively. In the assay with CCL2, the concentration for a half-maximal effect (EC50) was above 33 µM.

Turning to `COc1cccc2c1[nH]c(=O)n2[C@H]1CC[C@@H](C(=O)Nc2ccc3cc[nH]c3c2)CC1` [Example 209, Cis-N-(1H-indol-6-yl)-4-(4-methoxy-2-oxo-2,3-dihydro-1H-1,3-benzodiazol-1-yl)cyclohexane-1-carboxamide], the results for the IC50 against OGG1 and with MLE12 cells were 0.402 µM and 21.5 µM, respectively. Also, the EC50 in the assay on CCL2 was found to be 34.9 µM.

As to `COc1ccc(CSc2cccc3c2[nH]c(=O)n3[C@H]2CC[C@@H](C(=O)Nc3ccc(C)c(OC)c3)CC2)cc1` [Example 230, Cis-N-(3-methoxy-4-methylphenyl)-4-(4-{[(4-methoxyphenyl)methyl]sulfanyl}-2-oxo-2,3-dihydro-1H-1,3-benzodiazol-1-yl)cyclohexane-1-carboxamide], the concentration for half-maximal inhibition (IC50) is 0.606 µM against OGG1 and 2.58 µM in the assay on MLE12 cells. In addition, in the assay on CCL2, the EC50 was determined as 5.84 µM.

`COc1cc(NC(=O)[C@H]2CC[C@@H](n3c(=O)[nH]c4c(C5=CCNCC5)cccc43)CC2)ccc1C` [Example 311, Cis-N-(3-methoxy-4-methylphenyl)-4-[2-oxo-4-(1,2,3,6-tetrahydropyridin-4-yl)-2,3-dihydro-1H-1,3-benzodiazol-1-yl]cyclohexane-1-carboxamide]: the IC50 against OGG1 worked out at 0.00449 µM; with MLE12 cells it was 13.8 µM. The 50% effective concentration (EC50) in the assay with CCL2 was 14.5 µM.

As for `O=c1[nH]c2c(Br)cccc2n1[C@H]1CC[C@@H](C(=O)Nc2ccc(O)cc2)CC1` [Example 191, Cis-4-(4-bromo-2-oxo-2,3-dihydro-1H-1,3-benzodiazol-1-yl)-N-(4-hydroxyphenyl)cyclohexane-1-carboxamide], the half-maximal inhibitory concentration (IC50) is 0.0557 µM against OGG1 and 29.8 µM in the assay with MLE12 cells. Also, the EC50 with CCL2 was 33.5 µM.

Turning to `O=c1[nH]c2c(Br)cccc2n1[C@H]1CC[C@@H](C(=O)Nc2ccc(Cl)nc2)CC1` [Example 184, Cis-4-(4-bromo-2-oxo-2,3-dihydro-1H-1,3-benzodiazol-1-yl)-N-(6-chloropyridin-3-yl)cyclohexane-1-carboxamide], the half-maximal inhibitory concentration (IC50) against OGG1 was found to be 0.325 µM; in the assay on MLE12 cells, 7.86 µM. The concentration giving a half-maximal response (EC50) in the assay with CCL2 turned out to be 16.8 µM.

Turning to `O=c1[nH]c2c(Cl)cccc2n1[C@H]1CC[C@@H](C(=O)Nc2ccc(Cl)cc2)CC1` [Example 150, (Cis)-4-(4-chloro-2-oxo-2,3-dihydro-1H-1,3-benzodiazol-1-yl)-N-(4-chlorophenyl)cyclohexane-1-carboxamide], the values for the IC50 against OGG1 and in the assay on MLE12 cells were 0.106 µM and 7.58 µM, respectively. In addition, in the assay on CCL2, the half-maximal effective concentration (EC50) was found to be 18.7 µM.

Take `COc1cc(NC(=O)[C@H]2CC[C@@H](n3c(=O)[nH]c4ccccc43)CC2)ccc1C` [Example 226, Cis-N-(3-methoxy-4-methylphenyl)-4-(2-oxo-2,3-dihydro-1H-1,3-benzodiazol-1-yl)cyclohexane-1-carboxamide]: the half-maximal inhibitory concentration (IC50) on OGG1 is 0.0779 µM; in the assay with MLE12 cells, 17.1 µM. For the same molecule, the EC50 in the assay with CCL2 turned out to be 34.1 µM.

Consider `COc1cc(NC(=O)[C@H]2CC[C@@H](n3c(=O)[nH]c4c(N(C)CCCNC(=O)OC(C)(C)C)cccc43)CC2)ccc1C` [Example 305, tert-Butyl N-{3-[methyl({2-oxo-1-[cis-4-[(3-methoxy-4-methylphenyl)carbamoyl]cyclohexyl]-2,3-dihydro-1H-1,3-benzodiazol-4-yl})amino]propyl}carbamate], for which the IC50 on OGG1 amounted to 0.251 µM; in the assay with MLE12 cells it was 4.88 µM. The EC50 in the assay on CCL2 worked out at 8.11 µM.

Consider `COCC(=O)Nc1cccc2c1[nH]c(=O)n2[C@H]1CC[C@@H](C(=O)Nc2ccc(C)c(OC)c2)CC1` [Example 250, Cis-N-(3-methoxy-4-methylphenyl)-4-[4-(2-methoxyacetamido)-2-oxo-2,3-dihydro-1H-1,3-benzodiazol-1-yl]cyclohexane-1-carboxamide], for which the IC50 came to 0.0235 µM at OGG1 and 26 µM in the assay on MLE12 cells. Moreover, the concentration giving a half-maximal response (EC50) in the assay on CCL2 was 39.9 µM.

In the case of `Cc1cc(NC(=O)[C@H]2CC[C@@H](n3c(=O)[nH]c4c(Br)cccc43)CC2)cnc1Cl` [Example 187, Cis-4-(4-bromo-2-oxo-2,3-dihydro-1H-1,3-benzodiazol-1-yl)-N-(6-chloro-5-methylpyridin-3-yl)cyclohexane-1-carboxamide], the results for the IC50 against OGG1 and in the assay on MLE12 cells were 0.338 µM and 7.9 µM, respectively. Also, in the assay with CCL2, the EC50 was 13 µM.

`COc1ccc(NC(=O)[C@H]2CC[C@@H](n3c(=O)[nH]c4c(Br)cccc43)CC2)cc1F` [Example 164, (Cis)-4-(4-bromo-2-oxo-2,3-dihydro-1H-1,3-benzodiazol-1-yl)-N-(3-fluoro-4-methoxyphenyl)cyclohexane-1-carboxamide]: the IC50 at OGG1 was found to be 0.043 µM; with MLE12 cells, 12.9 µM. In the assay with CCL2, the EC50 turned out to be 33.9 µM.

`COc1cc(NC(=O)[C@H]2CC[C@@H](n3c(=O)[nH]c4c(N5CCC(NC(C)=O)C5)cccc43)CC2)ccc1C` (stereo partly drawn) [Example 313, Cis-4-[4-(3-acetamidopyrrolidin-1-yl)-2-oxo-2,3-dihydro-1H-1,3-benzodiazol-1-yl]-N-(3-methoxy-4-methylphenyl)cyclohexane-1-carboxamide]: the IC50 on OGG1 was 0.0213 µM; with MLE12 cells, 19.5 µM. Besides, the EC50 in the assay with CCL2 came out at 35.1 µM.

`COc1cc(NC(=O)[C@H]2CC[C@@H](n3c(=O)[nH]c4c(N(C)CCCN)cccc43)CC2)ccc1C` [Example 302, Cis-4-{4-[(3-aminopropyl)(methyl)amino]-2-oxo-2,3-dihydro-1H-1,3-benzodiazol-1-yl}-N-(3-methoxy-4-methylphenyl)cyclohexane-1-carboxamide]: the IC50 at OGG1 came out at 0.0164 µM; with MLE12 cells, 14.4 µM. In addition, the concentration giving a half-maximal response (EC50) with CCL2 stood at 27.2 µM.

Take `COc1ccc(NC(=O)[C@H]2CC[C@@H](n3c(=O)[nH]c4c(Br)cccc43)CC2)c(F)c1F` [Example 154, (Cis)-4-(4-bromo-2-oxo-2,3-dihydro-1H-1,3-benzodiazol-1-yl)-N-(2,3-difluoro-4-methoxyphenyl)cyclohexane-1-carboxamide]: the concentration for half-maximal inhibition (IC50) against OGG1 is 0.383 µM; in the assay on MLE12 cells, 16.1 µM. In the assay with CCL2, the EC50 came to 52.3 µM.

On to `COC(=O)c1cc(NC(=O)[C@H]2CC[C@@H](n3c(=O)[nH]c4c(Br)cccc43)CC2)ccc1OC` [Example 151, Methyl 2-methoxy-5-[(cis)-4-(4-bromo-2-oxo-2,3-dihydro-1H-1,3-benzodiazol-1-yl)cyclohexaneamido]benzoate], for which the IC50 on OGG1 came out at 0.526 µM; with MLE12 cells it was 17.1 µM. Also, the EC50 in the assay with CCL2 came to 5.25 µM.

By IC50 is commonly meant the concentration that inhibits the measured activity by half. A lower IC50 goes with greater potency in that assay. One may read the EC50 as the concentration needed to bring the measured effect to its halfway point.
